From ChEMBL document CHEMBL4311997, “Discovery of a potent histone deacetylase (HDAC) 3/6 selective dual inhibitor” (Eur J Med Chem, 2019) come the findings set out here.

Molecules are shown by their SMILES. Activity calls are given as the source filed them. The rule behind the calls is not given here.

Data set [1] deals with Histone deacetylase 9 (Homo sapiens) (UniProt Q9UKV0). In words: Inhibition of human HDAC9 at 10 uM using Acetyl-Lys (trifluoroacetyl)-AMC) as substrate incubated for 2 hrs by fluorescence assay relative to control.
For data set [2], the target named is Protein deacetylase HDAC6 (Homo sapiens) (UniProt Q9UBN7). Kind of data set: Inhibition of HDAC6 in human KMS-12-BM cells assessed as increase in Ac-Tubulin level at 2.5 to 10 uM incubated for 24 hrs by Western blot analysis. Format: cell-based. On the technique in general: Immunoblotting shows a protein as a band on a membrane.
Data set [3] is filed under the species Homo sapiens. Kind of data set: Selectivity ratio of IC50 for inhibition of human HDAC2 to IC50 for inhibition of human HDAC3.
A short description of data set [4]: Inhibition of human MLL1 complex using core histone as substrate incubated for 1 hr in presence of [3H]-SAM by filter binding method.
Data set [5] is described as follows: Half life in female rat liver microsomes at 3 uM preincubated for 5 mins followed by NADPH addition and measured up to 45 mins by LC-MS/MS analysis. In kind it is ADME, Microsome.
The subject of data set [6] is MDA-MB-231. In words: Induction of apoptosis in human MDA-MB-231 cells assessed as early apoptotic cells at 6 uM incubated for 48 hrs by Annexin V-FITC/PI staining by flow cytometric analysis (reference value: 5%). In kind it is functional. A general note: A flow cytometer gives signals particle by particle.
Data set [7] concerns MDA-MB-231. Kind of data set: Induction of apoptosis in human MDA-MB-231 cells assessed as necrotic cells at 6 uM incubated for 48 hrs by Annexin V-FITC/PI staining by flow cytometric analysis (reference value: 15%). Format: functional.
The target in data set [8] is Histone deacetylase 7 (Homo sapiens) (UniProt Q8WUI4). In words: Inhibition of human HDAC7 at 10 uM using Acetyl-Lys (trifluoroacetyl)-AMC) as substrate incubated for 2 hrs by fluorescence assay.
A further data set relates to KMS-12-BM. Kind of data set: Effect on human KMS-12-BM cells assessed as increase in cleaved PARP level at 10 uM incubated for 24 hrs by Western blot analysis. In kind it is functional, cell-based.
Data set [9] deals with Histone-lysine N-methyltransferase SUV39H2 (Homo sapiens) (UniProt Q9H5I1). In words: Inhibition of human SUV39H2 at 100 uM using histone H3 as substrate incubated for 1 hr in presence of [3H]-SAM by filter binding method relative to control.
Data set [10] is filed under the species Homo sapiens. Kind of data set: Selectivity ratio of IC50 for human HDAC9 to IC50 for human HDAC6.
A short description of data set [11]: Selectivity index, ratio of EC50 for human MDA-MB-231 cells to IC50 for ring stage Plasmodium falciparum K1. Format: functional. Also noted: reference not given here.
Data set [12] concerns the target Histone-lysine N-methyltransferase EHMT2 (Homo sapiens, UniProt Q96KQ7). In words: Inhibition of human G9a using core histone H3 (1 to 21 residues) as substrate incubated for 1 hr in presence of [3H]-SAM by filter binding method.

Chain of Histone deacetylase 7 (Homo sapiens) (Q8WUI4 whole entry): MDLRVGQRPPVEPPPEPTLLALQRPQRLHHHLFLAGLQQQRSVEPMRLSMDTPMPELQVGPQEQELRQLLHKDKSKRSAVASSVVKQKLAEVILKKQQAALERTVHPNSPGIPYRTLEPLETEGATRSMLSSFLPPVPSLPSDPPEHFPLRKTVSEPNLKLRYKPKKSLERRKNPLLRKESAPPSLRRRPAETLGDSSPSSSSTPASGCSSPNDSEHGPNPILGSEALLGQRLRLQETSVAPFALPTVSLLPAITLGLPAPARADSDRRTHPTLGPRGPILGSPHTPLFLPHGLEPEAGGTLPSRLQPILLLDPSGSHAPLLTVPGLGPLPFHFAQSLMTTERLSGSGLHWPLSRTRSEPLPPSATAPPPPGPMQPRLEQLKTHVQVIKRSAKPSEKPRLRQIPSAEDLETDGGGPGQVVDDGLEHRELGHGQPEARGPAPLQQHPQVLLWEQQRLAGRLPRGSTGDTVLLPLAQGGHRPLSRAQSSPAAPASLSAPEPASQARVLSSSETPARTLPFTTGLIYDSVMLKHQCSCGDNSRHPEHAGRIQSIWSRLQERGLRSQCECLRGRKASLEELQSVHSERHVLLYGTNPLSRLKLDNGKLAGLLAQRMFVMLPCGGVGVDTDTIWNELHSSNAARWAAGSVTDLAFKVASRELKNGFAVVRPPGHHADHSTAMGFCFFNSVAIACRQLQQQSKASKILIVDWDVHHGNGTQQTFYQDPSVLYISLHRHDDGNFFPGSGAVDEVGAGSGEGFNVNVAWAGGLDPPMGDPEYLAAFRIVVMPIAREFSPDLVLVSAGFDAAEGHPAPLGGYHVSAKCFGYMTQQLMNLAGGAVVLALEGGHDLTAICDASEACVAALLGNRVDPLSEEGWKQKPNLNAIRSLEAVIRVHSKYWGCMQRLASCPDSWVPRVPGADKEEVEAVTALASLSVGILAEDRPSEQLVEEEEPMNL
Chain of Histone deacetylase 9 (Homo sapiens) (Q9UKV0 whole entry): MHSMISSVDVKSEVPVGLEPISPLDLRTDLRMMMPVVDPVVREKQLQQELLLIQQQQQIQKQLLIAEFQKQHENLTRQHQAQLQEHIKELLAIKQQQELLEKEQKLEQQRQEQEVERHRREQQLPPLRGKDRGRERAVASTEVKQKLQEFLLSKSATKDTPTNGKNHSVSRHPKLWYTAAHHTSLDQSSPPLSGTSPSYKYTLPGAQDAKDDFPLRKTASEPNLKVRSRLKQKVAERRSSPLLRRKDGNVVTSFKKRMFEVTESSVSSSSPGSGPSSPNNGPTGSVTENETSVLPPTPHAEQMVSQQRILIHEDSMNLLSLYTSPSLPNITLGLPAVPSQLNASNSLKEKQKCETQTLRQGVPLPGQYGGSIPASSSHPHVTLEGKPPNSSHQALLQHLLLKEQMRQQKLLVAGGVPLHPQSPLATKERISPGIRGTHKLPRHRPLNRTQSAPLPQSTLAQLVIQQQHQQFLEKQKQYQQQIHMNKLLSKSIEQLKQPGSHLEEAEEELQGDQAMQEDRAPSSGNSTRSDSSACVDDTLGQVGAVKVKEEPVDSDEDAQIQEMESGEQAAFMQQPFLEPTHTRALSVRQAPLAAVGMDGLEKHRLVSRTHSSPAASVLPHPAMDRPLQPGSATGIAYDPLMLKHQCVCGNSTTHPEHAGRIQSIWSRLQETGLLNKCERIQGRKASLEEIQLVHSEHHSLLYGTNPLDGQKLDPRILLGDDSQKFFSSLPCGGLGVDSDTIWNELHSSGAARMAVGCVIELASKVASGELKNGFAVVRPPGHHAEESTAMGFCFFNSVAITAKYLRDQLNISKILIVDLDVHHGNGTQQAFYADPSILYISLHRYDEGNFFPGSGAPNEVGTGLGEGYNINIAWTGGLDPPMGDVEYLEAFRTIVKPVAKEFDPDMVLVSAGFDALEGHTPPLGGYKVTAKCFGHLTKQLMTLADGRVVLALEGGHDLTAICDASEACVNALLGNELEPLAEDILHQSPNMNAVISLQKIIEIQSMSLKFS
Chain of Histone-lysine N-methyltransferase SUV39H2 (Homo sapiens) (Q9H5I1 whole entry): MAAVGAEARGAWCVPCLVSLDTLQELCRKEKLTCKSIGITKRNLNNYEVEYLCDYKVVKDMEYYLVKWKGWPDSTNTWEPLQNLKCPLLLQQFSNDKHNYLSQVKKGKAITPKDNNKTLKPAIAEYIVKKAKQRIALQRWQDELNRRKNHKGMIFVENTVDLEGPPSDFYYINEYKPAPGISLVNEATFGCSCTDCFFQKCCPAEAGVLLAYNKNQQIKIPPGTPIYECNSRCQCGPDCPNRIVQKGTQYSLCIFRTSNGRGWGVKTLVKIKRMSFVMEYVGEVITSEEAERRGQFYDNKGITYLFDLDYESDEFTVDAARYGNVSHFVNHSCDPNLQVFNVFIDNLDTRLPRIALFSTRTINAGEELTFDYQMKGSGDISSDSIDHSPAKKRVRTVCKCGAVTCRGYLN
Chain of Protein deacetylase HDAC6 (Homo sapiens) (Q9UBN7 whole entry): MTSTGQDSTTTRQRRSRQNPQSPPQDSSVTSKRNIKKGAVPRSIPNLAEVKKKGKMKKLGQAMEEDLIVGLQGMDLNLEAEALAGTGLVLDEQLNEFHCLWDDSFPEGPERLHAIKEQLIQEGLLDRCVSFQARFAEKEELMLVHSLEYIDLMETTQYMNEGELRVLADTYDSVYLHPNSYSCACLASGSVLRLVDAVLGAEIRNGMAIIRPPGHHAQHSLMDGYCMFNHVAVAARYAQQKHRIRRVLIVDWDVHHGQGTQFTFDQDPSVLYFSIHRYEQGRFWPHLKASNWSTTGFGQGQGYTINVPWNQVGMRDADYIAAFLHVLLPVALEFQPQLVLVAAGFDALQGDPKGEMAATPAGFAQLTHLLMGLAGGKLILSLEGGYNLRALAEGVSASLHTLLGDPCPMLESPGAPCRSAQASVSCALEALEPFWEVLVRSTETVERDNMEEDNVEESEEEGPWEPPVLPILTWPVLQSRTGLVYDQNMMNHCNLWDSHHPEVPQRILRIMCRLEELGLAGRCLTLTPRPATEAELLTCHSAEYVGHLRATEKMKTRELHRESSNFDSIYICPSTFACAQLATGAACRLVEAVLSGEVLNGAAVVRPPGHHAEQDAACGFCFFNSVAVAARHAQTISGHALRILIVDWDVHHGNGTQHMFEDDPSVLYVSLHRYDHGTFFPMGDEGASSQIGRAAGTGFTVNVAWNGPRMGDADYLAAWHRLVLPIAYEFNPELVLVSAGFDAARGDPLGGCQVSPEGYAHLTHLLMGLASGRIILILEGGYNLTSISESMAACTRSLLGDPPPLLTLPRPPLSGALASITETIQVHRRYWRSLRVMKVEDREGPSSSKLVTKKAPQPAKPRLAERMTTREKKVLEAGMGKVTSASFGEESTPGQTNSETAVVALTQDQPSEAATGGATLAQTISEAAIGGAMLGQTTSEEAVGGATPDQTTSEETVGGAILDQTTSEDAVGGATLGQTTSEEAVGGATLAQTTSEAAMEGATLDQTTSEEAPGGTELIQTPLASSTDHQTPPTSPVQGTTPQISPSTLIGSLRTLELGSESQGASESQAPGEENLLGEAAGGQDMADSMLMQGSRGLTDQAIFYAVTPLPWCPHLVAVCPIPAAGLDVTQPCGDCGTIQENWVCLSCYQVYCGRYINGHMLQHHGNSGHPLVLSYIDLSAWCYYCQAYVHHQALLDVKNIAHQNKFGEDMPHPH
Chain of Histone-lysine N-methyltransferase EHMT2 (Q96KQ7 whole entry, the tested form may be a part): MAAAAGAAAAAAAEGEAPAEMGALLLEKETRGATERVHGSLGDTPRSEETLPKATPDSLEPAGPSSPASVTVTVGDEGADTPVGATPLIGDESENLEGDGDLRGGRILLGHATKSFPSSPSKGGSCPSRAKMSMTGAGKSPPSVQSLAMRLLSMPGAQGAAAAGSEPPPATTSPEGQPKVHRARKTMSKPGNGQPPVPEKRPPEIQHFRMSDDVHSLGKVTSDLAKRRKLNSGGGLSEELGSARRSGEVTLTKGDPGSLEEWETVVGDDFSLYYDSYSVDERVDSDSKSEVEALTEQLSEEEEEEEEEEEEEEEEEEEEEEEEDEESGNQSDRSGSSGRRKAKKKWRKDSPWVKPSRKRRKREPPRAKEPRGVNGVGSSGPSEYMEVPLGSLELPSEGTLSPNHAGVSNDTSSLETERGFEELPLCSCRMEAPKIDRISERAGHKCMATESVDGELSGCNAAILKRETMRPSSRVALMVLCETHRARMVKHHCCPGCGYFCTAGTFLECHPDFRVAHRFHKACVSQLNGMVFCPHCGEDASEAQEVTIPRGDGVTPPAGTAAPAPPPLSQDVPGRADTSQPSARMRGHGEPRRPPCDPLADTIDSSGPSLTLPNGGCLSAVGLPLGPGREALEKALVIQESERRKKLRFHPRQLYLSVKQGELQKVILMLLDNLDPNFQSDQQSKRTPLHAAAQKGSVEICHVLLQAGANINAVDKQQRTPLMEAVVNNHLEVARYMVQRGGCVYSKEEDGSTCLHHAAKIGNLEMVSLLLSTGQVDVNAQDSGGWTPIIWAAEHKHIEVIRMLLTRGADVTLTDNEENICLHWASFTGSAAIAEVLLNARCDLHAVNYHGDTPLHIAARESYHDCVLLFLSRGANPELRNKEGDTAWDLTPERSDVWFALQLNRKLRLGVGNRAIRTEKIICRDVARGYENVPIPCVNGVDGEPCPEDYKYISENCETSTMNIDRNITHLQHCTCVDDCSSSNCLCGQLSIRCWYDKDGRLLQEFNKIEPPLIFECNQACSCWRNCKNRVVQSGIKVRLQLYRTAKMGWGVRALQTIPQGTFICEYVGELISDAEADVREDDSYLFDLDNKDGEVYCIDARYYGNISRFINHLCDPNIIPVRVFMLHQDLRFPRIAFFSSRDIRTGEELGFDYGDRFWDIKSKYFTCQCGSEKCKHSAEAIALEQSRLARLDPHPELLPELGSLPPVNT

As for `COc1ccc(CN2CCC(Nc3nc(Nc4ccc(NC(=O)CCCCCCC(=O)NO)cc4)nc4cc(OC)c(OC)cc34)CC2)cc1`, in data set [1], the inhibition (in general, the share of the control response that was lost under treatment) was found to be 21%. Besides, the inhibition result in [2] is “Active”. The Ratio IC50 is 26 to 33 in the data set filed under Homo sapiens [3] and more than 3000 in the data set filed under Homo sapiens [10]. The values for the EC50 in [4] and in data set [12] were 158 µM and 142 µM, respectively. Further, in [5], the half-life (usually the time in which the quantity being followed falls by half) at 3 µM came out at 1.73 h. Besides, the Activity in the data set on MDA-MB-231 [6] was found to be 18%; in the data set on MDA-MB-231 [7], 12%. Also, the inhibition entry in [8] and in data set [9] was “inactive” each time. Besides, in the data set with KMS-12-BM, the outcome was Active. Further, the “Selectivity Index” value in [11] was found to be 12.
